# Measurements as given in US9353090B2, “Heterocyclic carboxylic acids as activators of soluble guanylate cyclase” (Boehringer Ingelheim International GmbH, priority 2014, dated 2016).
# How the values were obtained:
# [1] = Human liver microsome (HLM) metabolic stability assay; type: in vitro ADME; settings: human liver microsomes
# How it was run: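 Remaining parent measured by LC/MS/MS (ESI, MRM) at 5, 15, 30 and 60 min relative to 0 min. Incubation: 1 uM compound, HLMs, NADPH-started, 37° C., 60 min total, single replicate. Slope of ln(% remaining) gives t1/2 = 0.693/slope, then CLint, CLh and % Qh.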
# [2] = physchem; settings: kinetic from dmso stock
# [3] = target: human soluble guanylate cyclase alpha 1 and beta 1 subunits (sGC) (Homo sapiens (Human), UniProt Q02108+Q02153); assay: sGC cellular activator assay (cGMP, HTRF), in the presence and absence of 50% human serum; type: cell-based; settings: CHO cells stably expressing human sGC alpha 1/beta 1, preincubated with 40 microM ODQ; cGMP by HTRF; Table 2 does not state whether with or without 50% human serum
# Sequence of human soluble guanylate cyclase alpha 1 and beta 1 subunits (sGC) (Q02108 whole entry partner): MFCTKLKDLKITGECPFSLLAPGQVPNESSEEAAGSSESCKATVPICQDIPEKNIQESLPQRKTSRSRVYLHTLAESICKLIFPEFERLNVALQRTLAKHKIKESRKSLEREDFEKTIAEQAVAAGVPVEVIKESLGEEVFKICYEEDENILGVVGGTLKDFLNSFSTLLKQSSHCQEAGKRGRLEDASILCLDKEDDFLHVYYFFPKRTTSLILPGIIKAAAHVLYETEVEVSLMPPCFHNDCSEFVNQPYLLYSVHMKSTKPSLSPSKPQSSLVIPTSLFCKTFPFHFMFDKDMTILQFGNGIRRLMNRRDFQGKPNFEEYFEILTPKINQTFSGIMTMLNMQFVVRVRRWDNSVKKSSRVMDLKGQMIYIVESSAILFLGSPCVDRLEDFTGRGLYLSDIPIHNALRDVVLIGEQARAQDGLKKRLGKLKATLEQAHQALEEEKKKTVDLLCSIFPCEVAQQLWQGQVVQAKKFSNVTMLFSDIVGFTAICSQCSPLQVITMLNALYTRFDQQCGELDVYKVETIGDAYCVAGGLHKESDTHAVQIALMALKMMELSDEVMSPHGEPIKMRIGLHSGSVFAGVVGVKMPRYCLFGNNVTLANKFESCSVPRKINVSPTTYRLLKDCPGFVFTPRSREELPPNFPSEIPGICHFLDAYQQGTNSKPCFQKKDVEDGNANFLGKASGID
# Sequence of human soluble guanylate cyclase alpha 1 and beta 1 subunits (sGC) (Q02153 whole entry): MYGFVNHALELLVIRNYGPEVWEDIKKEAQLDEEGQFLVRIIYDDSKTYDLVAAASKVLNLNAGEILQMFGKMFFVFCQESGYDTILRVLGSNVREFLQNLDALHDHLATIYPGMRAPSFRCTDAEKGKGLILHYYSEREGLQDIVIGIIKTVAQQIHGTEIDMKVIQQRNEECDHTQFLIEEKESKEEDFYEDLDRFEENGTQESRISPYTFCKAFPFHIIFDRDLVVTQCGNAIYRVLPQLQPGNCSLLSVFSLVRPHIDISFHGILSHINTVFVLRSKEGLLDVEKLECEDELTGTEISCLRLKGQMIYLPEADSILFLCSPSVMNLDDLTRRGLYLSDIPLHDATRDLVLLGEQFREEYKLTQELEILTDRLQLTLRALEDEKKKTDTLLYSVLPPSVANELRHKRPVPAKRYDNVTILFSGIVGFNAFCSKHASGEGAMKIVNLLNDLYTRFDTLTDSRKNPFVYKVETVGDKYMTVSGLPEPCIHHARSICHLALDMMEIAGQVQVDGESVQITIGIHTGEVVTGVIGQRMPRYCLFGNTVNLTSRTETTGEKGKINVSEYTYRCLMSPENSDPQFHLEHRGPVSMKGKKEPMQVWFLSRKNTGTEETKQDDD
# How it was run: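 First, CHO-sGC (human α1β1) cells get 1 h ODQ at 40 microM with IBMX and 0.1% BSA. Finally, cGMP is quantified by HTRF and EC50 computed.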
# [4] = pH 2.2, aqueous buffer, Solubility (pH 2.2)
# [5] = pH 4.5, aqueous buffer, Solubility (pH 4.5)
# [6] = pH 6.8, aqueous buffer, Solubility (pH 6.8)
SMILES,"Metabolic stability (Qh %), % hepatic blood flow [1]","solubility at 24 h [2, 4]","solubility at 24 h [2, 5]","solubility at 24 h [2, 6]",EC50 [3]
CCO[C@H]1CN(c2cccc(-c3cccc(Cl)c3OCc3cc(C)c4c(c3)CCN(C3CCOCC3)C4)n2)CC[C@H]1C(=O)O [Compound 256],89%,151 µg/mL,82 µg/mL,57.1 µg/mL,3 nM
CO[C@H]1CN(c2nc(-c3cc(C)ccc3OCc3ccc4c(c3C)CCN(C3CCOCC3)C4=O)cs2)CC[C@H]1C(=O)O [Compound 203],<24%,56.8 µg/mL,0.1 µg/mL,1.6 µg/mL,33 nM
CO[C@H]1CN(c2nc(-c3cccc(Cl)c3OCc3ccc4c(c3)[C@H](C)CN(C3CCOCC3)CC4)cs2)CC[C@H]1C(=O)O [Compound 320],26%,115 µg/mL,60.6 µg/mL,46.4 µg/mL,4 nM
Cc1ccc(OCc2ccc3c(c2C)CCN(C2CCOCC2)CC3)c(-c2csc(N3CC[C@@]4(C(=O)O)C[C@H]4C3)n2)c1 [Compound 130],<24%,120 µg/mL,20 µg/mL,2.9 µg/mL,6 nM
Cc1ccc(OCc2ccc3c(c2C)CCN(C2CCOCC2)C3)c(-c2csc(N3C[C@@H]4C[C@]4(C(=O)O)C3)n2)c1 [Compound 146],26%,110 µg/mL,59 µg/mL,9.9 µg/mL,57 nM
CCO[C@H]1CN(c2nccc(-c3cccc(C)c3OCc3ccc4c(c3C)CCN(C3CCOCC3)CC4)n2)CC[C@H]1C(=O)O [Compound 275],28%,117 µg/mL,81.3 µg/mL,84.5 µg/mL,32 nM
Cc1cccc(-c2cccc(N3CC[C@@]4(C(=O)O)C[C@H]4C3)n2)c1OCc1ccc2c(c1)CCN(C1CCOCC1)C2 [Compound 13],42%,140 µg/mL,120 µg/mL,71 µg/mL,6 nM
COC[C@H]1N(c2cccc(-c3cccc(C)c3OCc3cc(C)c4c(c3)CCN(C3CCOCC3)C4)n2)C[C@@H]2C[C@@]21C(=O)O [Compound 48],<24%,110 µg/mL,69 µg/mL,83 µg/mL,18 nM
Cc1cc(C)c(OCc2ccc3c(c2)CCN(C2CCOCC2)C3)c(-c2csc(N3C[C@@H]4C[C@]4(C(=O)O)C3)n2)c1 [Compound 151],<24%,110 µg/mL,71 µg/mL,54 µg/mL,135 nM
Cc1cc(COc2c(C)cccc2-c2ccnc(N3C[C@@H]4C[C@]4(C(=O)O)C3)n2)cc2c1CN(C1CCOCC1)CC2 [Compound 190],<24%,99 µg/mL,71 µg/mL,74 µg/mL,17 nM
Cc1nccnc1C(C)N1CCc2c(ccc(COc3ccccc3-c3cccc(N4CC[C@@]5(C(=O)O)C[C@H]5C4)n3)c2C)C1 (some centres unmarked) [Compound 309],54%,163 µg/mL,116 µg/mL,23.8 µg/mL,18 nM
COCc1cc(COc2c(C)cccc2-c2cccc(N3CC[C@H](C(=O)O)[C@H](OC)C3)n2)cc2c1CN(C1CCOC1)CC2 (some centres unmarked) [Compound 284],<24%,129 µg/mL,103 µg/mL,83.5 µg/mL,231 nM
COc1cc(COc2c(C)cccc2-c2csc(N3CC[C@@H](C(=O)O)[C@@H](OC)C3)n2)cc2c1CN([C@@H]1CCOC1)CC2 [Compound 210],<24%,136 µg/mL,88.2 µg/mL,75 µg/mL,16 nM
CCO[C@@H]1CN(c2nc(-c3cccc(C)c3OCc3cc4c(c(OC)c3)CN(C3CCOCC3)CC4)cs2)CC[C@@H]1C(=O)O [Compound 228],<24%,148 µg/mL,114 µg/mL,107 µg/mL,6 nM
CCc1cc(COc2ccc(C)cc2-c2cccc(N3CC[C@H](C(=O)O)[C@H](OC)C3)n2)cc2c1CN(C1CCOCC1)CC2 [Compound 79],<24%,140 µg/mL,120 µg/mL,91 µg/mL,25 nM
CO[C@@H]1CN(c2cccc(-c3cccc(C)c3OCc3ccc4c(c3C)CCN(C3COC3)CC4)n2)CC[C@H]1C(=O)O [Compound 290],<24%,119 µg/mL,80 µg/mL,66.5 µg/mL,228 nM
COC[C@H]1N(c2cccc(-c3cccc(C)c3OCc3ccc4c(c3)CCN(C3CCOCC3)C4)n2)C[C@@H]2C[C@@]21C(=O)O [Compound 44],<24%,130 µg/mL,110 µg/mL,86 µg/mL,58 nM
Cc1ccc(OCc2ccc3c(c2C)CCN(C2CCOCC2)CC3)c(-c2csc(N3C[C@@H]4C[C@]4(C(=O)O)C3)n2)c1 [Compound 150],<24%,100 µg/mL,44 µg/mL,9.7 µg/mL,24 nM
COc1cc(COc2c(C)cccc2-c2csc(N3CC[C@@H](C(=O)O)[C@@H](OC)C3)n2)c(F)c2c1CN(C1CCOCC1)CC2 [Compound 252],<24%,133 µg/mL,81.7 µg/mL,72.9 µg/mL,2 nM
COC[C@H]1N(c2cccc(-c3cc(C)ccc3OCc3ccc4c(c3C)CCN(C3CCOCC3)C4)n2)C[C@@H]2C[C@@]21C(=O)O [Compound 218],<24%,144 µg/mL,139 µg/mL,134 µg/mL,81 nM
CO[C@@H]1CN(c2cccc(-c3cccc(C)c3OCc3ccc4c(c3C)CCN(C)CC4)n2)CC[C@@H]1C(=O)O [Compound 300],<24%,116 µg/mL,82.3 µg/mL,62.3 µg/mL,154 nM
CO[C@H]1CN(c2nc(-c3cccc(C)c3OCc3ccc4c(c3)[C@H](C)CN(C3CCOCC3)CC4)cs2)CC[C@H]1C(=O)O [Compound 313],<24%,141 µg/mL,136 µg/mL,133 µg/mL,7 nM
Cc1c(COc2ccccc2-c2cccc(N3CC[C@@]4(C(=O)O)C[C@H]4C3)n2)ccc2c1CCN([C@@H]1CCOC1)C2 [Compound 8],49%,150 µg/mL,110 µg/mL,44 µg/mL,12 nM
Cc1ccc(OCc2ccc3c(c2)CCN(C2CCOCC2)C3)c(-c2csc(N3C[C@@H]4C[C@]4(C(=O)O)[C@H]3C)n2)c1 [Compound 153],<24%,120 µg/mL,72 µg/mL,47 µg/mL,14 nM
COC[C@H]1N(c2cccc(-c3cccc(C)c3OCc3ccc4c(c3C)CCN(C3CCOCC3)CC4)n2)C[C@@H]2C[C@@]21C(=O)O [Compound 61],<24%,110 µg/mL,96 µg/mL,74 µg/mL,8 nM
